The source made the active and inactive calls.
How the values were obtained:
[1] = biological target: Sodium-dependent serotonin transporter (Homo sapiens) (UniProt P31645); conditions: Compound concentration 10.0 uM
[2] = biological target: Serine/threonine-protein kinase pim-2 (Homo sapiens) (UniProt Q9P1W9); assay: Pim2 Invitrogen kinase panel; conditions: Compound concentration 10.0 uM
[3] = biological target: 5-hydroxytryptamine receptor 7 (Homo sapiens) (UniProt P34969); conditions: Compound concentration 10.0 uM
[4] = biological target: Mitogen-activated protein kinase 3 (Homo sapiens) (UniProt P27361); assay: ERK1 Invitrogen kinase panel; conditions: Compound concentration 10.0 uM
[5] = biological target: Oxysterols receptor LXR-alpha (Homo sapiens) (UniProt Q13133); assay: LXRalpha Indigo Bioscience nuclear receptor screen; conditions: Compound concentration 0.3 uM
[6] = biological target: 5-hydroxytryptamine receptor 1D (Homo sapiens) (UniProt P28221); conditions: Compound concentration 10.0 uM
[7] = biological target: Nuclear receptor ROR-gamma (Homo sapiens) (UniProt P51449)
[8] = biological target: Thyroid hormone receptor beta (Homo sapiens) (UniProt P10828); assay: TRbeta Indigo Bioscience nuclear receptor screen; conditions: Compound concentration 0.3 uM
[9] = biological target: T1, CAR (nuclear receptor subfamily 1 group I member 3) (Homo sapiens, UniProt Q14994); assay: CAR Indigo Bioscience nuclear receptor screen
T1 sequence (Q14994 whole entry): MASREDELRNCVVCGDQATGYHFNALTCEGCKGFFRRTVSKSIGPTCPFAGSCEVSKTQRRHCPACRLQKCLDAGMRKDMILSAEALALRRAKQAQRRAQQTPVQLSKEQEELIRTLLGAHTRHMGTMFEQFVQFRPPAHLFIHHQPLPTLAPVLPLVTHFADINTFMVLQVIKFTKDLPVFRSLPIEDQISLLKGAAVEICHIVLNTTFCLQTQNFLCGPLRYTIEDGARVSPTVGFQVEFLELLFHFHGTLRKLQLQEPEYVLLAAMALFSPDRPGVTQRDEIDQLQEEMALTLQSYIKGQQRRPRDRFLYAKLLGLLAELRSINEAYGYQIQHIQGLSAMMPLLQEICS

[10] = biological target: Nuclear receptor ROR-gamma (Homo sapiens, UniProt P51449); assay: One-hybrid LBD; set-up: compound concentration 6 uM
[11] = biological target: Calcium/calmodulin-dependent protein kinase type II subunit alpha (Homo sapiens) (UniProt Q9UQM7); assay: CaMKIIalpha Invitrogen kinase panel; conditions: Compound concentration 10.0 uM
[12] = biological target: Histamine H1 receptor (Homo sapiens) (UniProt P35367); conditions: Compound concentration 10.0 uM
[13] = biological target: 5-hydroxytryptamine receptor 1B (Homo sapiens) (UniProt P28222); conditions: Compound concentration 10.0 uM
[14] = biological target: Serine/threonine-protein kinase PAK 3 (Homo sapiens) (UniProt O75914); assay: PAK3 Invitrogen kinase panel; conditions: Compound concentration 10.0 uM
[15] = biological target: T2, Peroxisome proliferator-activated receptor gamma (Homo sapiens) (UniProt P37231); assay: PPARgamma Indigo Bioscience nuclear receptor screen
T2 sequence (whole entry): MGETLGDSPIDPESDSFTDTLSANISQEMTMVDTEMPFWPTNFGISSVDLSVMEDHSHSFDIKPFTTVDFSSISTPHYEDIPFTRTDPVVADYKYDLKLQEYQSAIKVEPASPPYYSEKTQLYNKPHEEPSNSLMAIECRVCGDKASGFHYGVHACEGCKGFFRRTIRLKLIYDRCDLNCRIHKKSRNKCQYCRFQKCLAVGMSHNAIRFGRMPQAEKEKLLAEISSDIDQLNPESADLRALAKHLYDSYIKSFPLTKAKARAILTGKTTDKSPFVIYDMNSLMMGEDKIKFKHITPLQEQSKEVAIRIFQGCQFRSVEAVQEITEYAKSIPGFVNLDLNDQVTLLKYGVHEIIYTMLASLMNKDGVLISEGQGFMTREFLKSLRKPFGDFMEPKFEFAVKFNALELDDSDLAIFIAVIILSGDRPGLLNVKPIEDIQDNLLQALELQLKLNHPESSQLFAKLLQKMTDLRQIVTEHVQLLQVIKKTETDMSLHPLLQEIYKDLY

[16] = biological target: T2, Peroxisome proliferator-activated receptor gamma (Homo sapiens); assay: (§1) PPARgamma In-house nuclear receptor screen; conditions: Compound concentration 3.0 uM
[17] = biological target: Peroxisome proliferator-activated receptor gamma (Homo sapiens, UniProt P37231); assay: as §1
[18] = biological target: Type-1 angiotensin II receptor (Homo sapiens) (UniProt P30556); assay: AT1 (h) CEREP screen; conditions: Compound concentration 10.0 uM
[19] = biological target: Oxysterols receptor LXR-alpha (Homo sapiens, UniProt Q13133); assay: (§2) LXRalpha In-house nuclear receptor screen
[20] = biological target: Oxysterols receptor LXR-alpha (Homo sapiens) (UniProt Q13133); assay: as §2; conditions: Compound concentration 3.0 uM
[21] = biological target: Sodium-dependent serotonin transporter (Homo sapiens) (UniProt P31645); assay: 5-HT transporter (h) CEREP screen; conditions: Compound concentration 10.0 uM
[22] = biological target: Tyrosine-protein kinase ZAP-70 (Homo sapiens) (UniProt P43403); assay: ZAP_70 Invitrogen kinase panel; conditions: Compound concentration 10.0 uM
[23] = biological target: Serine/threonine-protein kinase Chk1 (Homo sapiens) (UniProt O14757); assay: CHK1 Invitrogen kinase panel; conditions: Compound concentration 10.0 uM
[24] = biological target: T3, Muscarinic acetylcholine receptor M1 (Homo sapiens) (UniProt P11229); assay: M1 (h) CEREP screen
T3 sequence (whole entry): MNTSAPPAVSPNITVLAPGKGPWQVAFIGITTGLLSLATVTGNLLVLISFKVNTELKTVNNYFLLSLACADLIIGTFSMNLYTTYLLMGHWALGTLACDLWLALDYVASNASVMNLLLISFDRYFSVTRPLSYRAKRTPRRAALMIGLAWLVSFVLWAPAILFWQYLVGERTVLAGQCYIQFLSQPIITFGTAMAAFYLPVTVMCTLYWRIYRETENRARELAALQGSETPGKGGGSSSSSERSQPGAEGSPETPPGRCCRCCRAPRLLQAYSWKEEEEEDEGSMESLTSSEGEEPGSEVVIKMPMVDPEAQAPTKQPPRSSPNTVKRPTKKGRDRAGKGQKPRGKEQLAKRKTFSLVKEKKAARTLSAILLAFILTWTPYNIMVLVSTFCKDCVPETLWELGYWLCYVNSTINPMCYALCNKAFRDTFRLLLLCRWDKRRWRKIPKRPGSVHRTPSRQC

[25] = biological target: Adenosine receptor A3 (Homo sapiens) (UniProt P0DMS8); assay: A3 (h) CEREP screen
[26] = biological target: Histamine H3 receptor (Homo sapiens) (UniProt Q9Y5N1); conditions: Compound concentration 10.0 uM
[27] = biological target: 5-hydroxytryptamine receptor 6 (Homo sapiens) (UniProt P50406); assay: 5-HT6 (h) CEREP screen
[28] = biological target: Estrogen receptor beta (Homo sapiens) (UniProt Q92731); assay: ERbeta In-house nuclear receptor screen; conditions: Compound concentration 3.0 uM
[29] = biological target: 5-hydroxytryptamine receptor 2A (Homo sapiens) (UniProt P28223); conditions: Compound concentration 10.0 uM
[30] = biological target: 5-hydroxytryptamine receptor 1A (Homo sapiens) (UniProt P08908); conditions: Compound concentration 10.0 uM

Sodium-dependent serotonin transporter (Homo sapiens), sequence (P31645 whole entry, looked up): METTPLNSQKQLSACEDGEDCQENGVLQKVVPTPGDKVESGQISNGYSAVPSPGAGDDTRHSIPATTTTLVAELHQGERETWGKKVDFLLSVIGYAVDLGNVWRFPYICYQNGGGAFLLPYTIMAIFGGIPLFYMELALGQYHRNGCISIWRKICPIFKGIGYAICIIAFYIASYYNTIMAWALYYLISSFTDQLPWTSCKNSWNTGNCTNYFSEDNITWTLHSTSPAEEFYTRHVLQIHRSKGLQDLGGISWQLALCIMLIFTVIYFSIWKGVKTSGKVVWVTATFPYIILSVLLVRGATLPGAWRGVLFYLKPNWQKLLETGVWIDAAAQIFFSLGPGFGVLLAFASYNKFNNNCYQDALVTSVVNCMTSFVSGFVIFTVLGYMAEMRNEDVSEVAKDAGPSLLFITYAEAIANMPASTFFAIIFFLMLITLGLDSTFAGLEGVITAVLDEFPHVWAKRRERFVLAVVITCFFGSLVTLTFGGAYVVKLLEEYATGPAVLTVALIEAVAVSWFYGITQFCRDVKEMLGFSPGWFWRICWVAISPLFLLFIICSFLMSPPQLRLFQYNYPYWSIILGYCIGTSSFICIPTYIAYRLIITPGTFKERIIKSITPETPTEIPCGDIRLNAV
5-hydroxytryptamine receptor 6 (Homo sapiens), sequence (P50406 whole entry): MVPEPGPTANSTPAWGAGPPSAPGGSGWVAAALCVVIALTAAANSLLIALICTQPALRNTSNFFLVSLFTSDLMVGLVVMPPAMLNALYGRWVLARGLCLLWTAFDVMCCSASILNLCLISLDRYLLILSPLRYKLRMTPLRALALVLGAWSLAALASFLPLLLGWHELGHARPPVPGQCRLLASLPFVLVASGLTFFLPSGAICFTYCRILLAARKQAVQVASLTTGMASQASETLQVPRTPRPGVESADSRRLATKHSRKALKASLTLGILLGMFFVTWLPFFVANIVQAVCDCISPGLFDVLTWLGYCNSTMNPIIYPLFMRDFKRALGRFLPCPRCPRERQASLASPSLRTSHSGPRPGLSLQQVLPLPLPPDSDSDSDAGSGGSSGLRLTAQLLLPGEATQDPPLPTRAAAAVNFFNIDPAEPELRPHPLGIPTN
Oxysterols receptor LXR-alpha (Homo sapiens), sequence (Q13133 whole entry): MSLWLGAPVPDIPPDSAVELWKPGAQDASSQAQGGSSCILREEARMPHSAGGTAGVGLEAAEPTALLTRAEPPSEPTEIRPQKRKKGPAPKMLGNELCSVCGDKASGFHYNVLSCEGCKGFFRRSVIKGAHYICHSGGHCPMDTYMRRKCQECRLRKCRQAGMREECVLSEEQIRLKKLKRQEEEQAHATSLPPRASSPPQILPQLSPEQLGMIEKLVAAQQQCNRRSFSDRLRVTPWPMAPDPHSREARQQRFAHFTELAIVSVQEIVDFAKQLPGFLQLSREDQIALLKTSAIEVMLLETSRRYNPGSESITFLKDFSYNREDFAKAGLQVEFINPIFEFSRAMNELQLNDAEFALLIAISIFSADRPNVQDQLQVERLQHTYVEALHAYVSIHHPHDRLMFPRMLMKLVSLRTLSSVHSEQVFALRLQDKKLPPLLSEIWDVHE
Adenosine receptor A3 (Homo sapiens), sequence (P0DMS8 whole entry): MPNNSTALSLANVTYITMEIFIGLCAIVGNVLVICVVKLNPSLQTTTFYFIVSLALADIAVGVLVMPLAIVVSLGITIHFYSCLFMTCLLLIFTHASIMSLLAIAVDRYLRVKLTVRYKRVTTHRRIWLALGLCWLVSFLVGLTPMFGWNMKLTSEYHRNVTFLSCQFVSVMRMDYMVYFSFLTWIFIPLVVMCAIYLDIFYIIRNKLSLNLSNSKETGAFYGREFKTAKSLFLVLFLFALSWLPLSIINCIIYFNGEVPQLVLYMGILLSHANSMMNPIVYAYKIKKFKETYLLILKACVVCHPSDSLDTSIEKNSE
Tyrosine-protein kinase ZAP-70 (Homo sapiens), sequence (P43403 whole entry): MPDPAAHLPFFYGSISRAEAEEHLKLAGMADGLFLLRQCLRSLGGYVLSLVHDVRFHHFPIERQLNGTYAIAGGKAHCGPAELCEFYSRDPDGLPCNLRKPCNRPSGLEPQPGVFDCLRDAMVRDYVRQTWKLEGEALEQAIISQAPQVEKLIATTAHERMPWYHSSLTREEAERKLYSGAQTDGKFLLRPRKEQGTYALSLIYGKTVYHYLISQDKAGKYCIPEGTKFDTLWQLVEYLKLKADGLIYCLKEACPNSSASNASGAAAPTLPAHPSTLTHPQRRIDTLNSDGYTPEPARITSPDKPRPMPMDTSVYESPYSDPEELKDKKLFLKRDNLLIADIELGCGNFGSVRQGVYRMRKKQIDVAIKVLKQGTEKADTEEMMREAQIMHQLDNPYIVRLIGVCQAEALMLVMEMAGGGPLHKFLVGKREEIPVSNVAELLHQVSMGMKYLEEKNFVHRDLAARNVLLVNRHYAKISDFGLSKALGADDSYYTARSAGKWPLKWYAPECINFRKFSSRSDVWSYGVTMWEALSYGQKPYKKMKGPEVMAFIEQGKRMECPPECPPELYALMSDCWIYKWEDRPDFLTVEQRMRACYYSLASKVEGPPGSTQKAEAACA
5-hydroxytryptamine receptor 1B (Homo sapiens), sequence (P28222 whole entry): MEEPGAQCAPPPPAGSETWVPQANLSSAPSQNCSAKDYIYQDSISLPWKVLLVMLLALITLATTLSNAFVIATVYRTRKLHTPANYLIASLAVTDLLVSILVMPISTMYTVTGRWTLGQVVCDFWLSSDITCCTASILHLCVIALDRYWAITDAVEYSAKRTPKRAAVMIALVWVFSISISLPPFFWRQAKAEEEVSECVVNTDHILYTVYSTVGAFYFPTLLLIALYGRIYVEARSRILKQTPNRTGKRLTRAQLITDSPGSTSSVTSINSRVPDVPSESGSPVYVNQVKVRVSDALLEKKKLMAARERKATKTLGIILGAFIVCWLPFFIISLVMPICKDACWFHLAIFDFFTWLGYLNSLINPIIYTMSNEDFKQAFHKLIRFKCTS
5-hydroxytryptamine receptor 7 (Homo sapiens), sequence (P34969 whole entry): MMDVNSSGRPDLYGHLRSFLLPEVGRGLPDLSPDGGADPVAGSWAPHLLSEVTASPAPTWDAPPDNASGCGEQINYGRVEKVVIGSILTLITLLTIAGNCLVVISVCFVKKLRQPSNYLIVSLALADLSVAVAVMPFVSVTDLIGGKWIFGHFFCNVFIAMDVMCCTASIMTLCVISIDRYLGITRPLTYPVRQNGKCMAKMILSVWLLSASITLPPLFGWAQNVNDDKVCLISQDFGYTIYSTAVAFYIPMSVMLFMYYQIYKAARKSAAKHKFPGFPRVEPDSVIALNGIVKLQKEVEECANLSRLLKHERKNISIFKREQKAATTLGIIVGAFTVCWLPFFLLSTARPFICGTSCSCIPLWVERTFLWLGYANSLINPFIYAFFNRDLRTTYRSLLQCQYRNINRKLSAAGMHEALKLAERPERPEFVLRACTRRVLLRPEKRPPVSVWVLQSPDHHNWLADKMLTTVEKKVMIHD
5-hydroxytryptamine receptor 1D (Homo sapiens), sequence (P28221 whole entry): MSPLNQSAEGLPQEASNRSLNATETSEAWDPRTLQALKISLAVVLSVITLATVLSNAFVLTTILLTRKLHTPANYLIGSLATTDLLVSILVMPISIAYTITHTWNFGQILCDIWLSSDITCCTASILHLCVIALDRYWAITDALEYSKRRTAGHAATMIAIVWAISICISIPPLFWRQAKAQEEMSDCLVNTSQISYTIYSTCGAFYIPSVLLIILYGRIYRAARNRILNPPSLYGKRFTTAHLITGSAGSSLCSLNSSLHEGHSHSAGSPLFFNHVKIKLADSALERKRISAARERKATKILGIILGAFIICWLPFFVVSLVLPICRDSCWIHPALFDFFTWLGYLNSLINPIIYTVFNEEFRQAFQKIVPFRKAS
Serine/threonine-protein kinase pim-2 (Homo sapiens), sequence (Q9P1W9 whole entry, looked up): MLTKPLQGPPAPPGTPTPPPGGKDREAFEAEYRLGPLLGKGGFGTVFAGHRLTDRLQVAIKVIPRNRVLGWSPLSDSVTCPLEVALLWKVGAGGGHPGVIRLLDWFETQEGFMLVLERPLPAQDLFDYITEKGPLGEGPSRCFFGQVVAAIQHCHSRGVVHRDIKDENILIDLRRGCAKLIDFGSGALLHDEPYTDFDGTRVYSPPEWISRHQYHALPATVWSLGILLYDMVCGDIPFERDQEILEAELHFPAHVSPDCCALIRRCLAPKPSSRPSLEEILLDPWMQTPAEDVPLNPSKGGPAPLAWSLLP
Mitogen-activated protein kinase 3 (Homo sapiens), sequence (P27361 whole entry): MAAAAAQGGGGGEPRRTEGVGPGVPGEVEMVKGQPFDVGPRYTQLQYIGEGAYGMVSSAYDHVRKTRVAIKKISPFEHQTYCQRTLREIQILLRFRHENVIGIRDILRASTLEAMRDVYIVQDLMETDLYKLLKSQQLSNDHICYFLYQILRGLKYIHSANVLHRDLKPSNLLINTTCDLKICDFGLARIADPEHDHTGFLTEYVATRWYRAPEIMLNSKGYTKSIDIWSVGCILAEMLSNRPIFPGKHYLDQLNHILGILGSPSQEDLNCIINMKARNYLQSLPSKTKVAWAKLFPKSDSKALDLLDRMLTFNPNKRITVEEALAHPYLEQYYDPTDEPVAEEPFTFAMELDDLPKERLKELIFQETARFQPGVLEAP
Nuclear receptor ROR-gamma (Homo sapiens), sequence (P51449 whole entry): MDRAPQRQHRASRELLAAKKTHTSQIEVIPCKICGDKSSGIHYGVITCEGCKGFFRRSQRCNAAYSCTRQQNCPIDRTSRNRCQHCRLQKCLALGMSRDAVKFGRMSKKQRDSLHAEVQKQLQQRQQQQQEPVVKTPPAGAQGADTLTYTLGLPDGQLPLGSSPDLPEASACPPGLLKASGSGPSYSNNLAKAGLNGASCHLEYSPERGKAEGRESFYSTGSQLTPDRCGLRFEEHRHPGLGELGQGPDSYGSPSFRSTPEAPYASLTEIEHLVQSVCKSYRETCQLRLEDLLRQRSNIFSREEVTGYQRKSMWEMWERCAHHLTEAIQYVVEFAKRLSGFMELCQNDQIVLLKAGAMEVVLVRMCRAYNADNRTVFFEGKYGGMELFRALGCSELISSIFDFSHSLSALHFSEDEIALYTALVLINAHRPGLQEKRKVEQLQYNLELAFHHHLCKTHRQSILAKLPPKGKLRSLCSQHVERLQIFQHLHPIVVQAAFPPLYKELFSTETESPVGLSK

COc1nc2ccc([C@@](O)(c3ccccc3)C3CCN(C(C)=O)CC3)cc2c(Cl)c1Cc1ccc(-n2cccn2)cc1 [JNJ-54119936]
2.37% (not active): inhibition at 3 µM ([9]; compound concentration 3 uM)
6.4 µM: IC50 [19]
5.4 µM: IC50 [17]
-0.121% (not active): inhibition at 0.3 µM ([9]; compound concentration 0.3 uM)
inactive: inhibition [1] 5.62% | inhibition [2] 1% | inhibition [3] -2.29% | inhibition [4] 10% | inhibition [5] -3.25% | inhibition [6] 5.9% | inhibition [8] 1.13% | inhibition [11] 14% | inhibition [12] 38% | inhibition [13] 8.87% | inhibition [14] 6% | inhibition ([15]; Compound concentration 0.3 uM) -0.894% | inhibition ([15]; Compound concentration 3.0 uM) -6.01% | inhibition [16] 28.2% | inhibition [18] 11% | inhibition [20] 31% | inhibition [21] 13% | inhibition [22] 5% | inhibition [23] 2% | inhibition ([24]; Compound concentration 1.0 uM) 12% | inhibition ([24]; Compound concentration 10.0 uM) 21% | inhibition ([25]; Compound concentration 1.0 uM) 45% | inhibition ([25]; Compound concentration 10.0 uM) 25% | inhibition [26] 0.46% | inhibition ([27]; Compound concentration 1.0 uM) 20% | inhibition ([27]; Compound concentration 10.0 uM) 22% | inhibition [28] 31.2% | inhibition [29] 6.87% | inhibition [30] 16.6%
-0.752% (not active): inhibition at 1 µM ([9]; compound concentration 1 uM)
active: qKD [7] 5.3 nM | IC50 [10] 0.03 µM
